Reference: patent publication USRE48335E1, “Polymyxin derivatives as antimicrobial compounds” (priority 2014, dated 2020)
Converted amounts (≈) assume the structure as drawn. Positions of bridges follow the written chain, without caps; N, C: chain ends. Non-standard residues stand in square brackets, D forms with d. Residues, ends and D or L forms follow the SMILES beside them. *: point of attachment. Decanoyl = CCCCCCCCCC(=O)*; X26 = Cc1ccc(CC(=O)*)cc1C; Heptanoyl = CCCCCCC(=O)*; Octanoyl = CCCCCCCC(=O)*; Orn = NCCC[C@H](N)C(=O)O; Dab = NCC[C@H](N)C(=O)O; Abu = CC[C@H](N)C(=O)O; Dap = NC[C@H](N)C(=O)O

What was measured:
Acinetobacter baumannii = system: Acinetobacter baumannii
Description: (§1) MICs of the lipopeptides (trifluoroacetic acid salt, TFA) were determined by broth microdilution in cation-adjusted Mueller-Hinton broth (CAMHB) (Oxoid Australia, Thebarton, SA, Australia) according to Clinical and Laboratory Standards Institute standards (Clinical and Laboratory Standards Institute. Performance standards for antimicrobial susceptibility testing; eighteenth informational supplement M100-S18. Wayne, Pa., 2008). Polymyxin B (sulphate) was employed as control. […]

Pseudomonas aeruginosa = system: Pseudomonas aeruginosa
Description: as §1

Enterobacter cloacae = system: Enterobacter cloacae
Description: as §1

Structure (SMILES)	Minimum inhibitory concentration, Ab A ATCC 17978 (Acinetobacter baumannii) [µg/mL]	Minimum inhibitory concentration, Ab ATCC 19606 (Acinetobacter baumannii) [µg/mL]	Minimum inhibitory concentration, Ab FADDI-AB034 (Acinetobacter baumannii) [µg/mL]	Minimum inhibitory concentration, Pa ATCC 27853 (Pseudomonas aeruginosa) [µg/mL]	Minimum inhibitory concentration, Pa FADDI-PA022 (Pseudomonas aeruginosa) [µg/mL]	Minimum inhibitory concentration, Pa FADDI-PA025 (Pseudomonas aeruginosa) [µg/mL]	Minimum inhibitory concentration, Ec FADDI-EC001 (Enterobacter cloacae) [µg/mL]	Minimum inhibitory concentration, Ec FADDI-EC003 (Enterobacter cloacae) [µg/mL]	Minimum inhibitory concentration, Ec FADDI-EC006 (Enterobacter cloacae) [µg/mL]
CC[C@@H]1NC(=O)[C@@H](CC(C)C)NC(=O)[C@H](CCN)NC(=O)[C@@H](NC(=O)[C@H](CN)NC(=O)[C@@H](NC(=O)[C@H](CCN)NC(=O)Cc2ccc(C)c(C)c2)[C@@H](C)O)CCNC(=O)[C@H]([C@@H](C)O)NC(=O)[C@H](CCN)NC(=O)[C@H](CCN)NC1=O [Compound 103] (X26-[Dab]T[Dap][Dab][Dab][dL][Abu][Dab][Dab]T; lactam 4-C)	0.5 (≈ 0.441 µM)	0.5 (≈ 0.441 µM)	0.5 (≈ 0.441 µM)	0.5 (≈ 0.441 µM)	0.5 (≈ 0.441 µM)	2 (≈ 1.76 µM)	<0.125	<0.125	0.5 (≈ 0.441 µM)
CCCCCCC(=O)N[C@@H](CCN)C(=O)N[C@H](C(=O)N[C@@H](CN)C(=O)N[C@H]1CCNC(=O)[C@H]([C@@H](C)O)NC(=O)[C@H](CCN)NC(=O)[C@H](CCN)NC(=O)[C@H]([C@@H](C)O)NC(=O)[C@@H](CC(C)C)NC(=O)[C@H](CCN)NC1=O)[C@@H](C)O [Compound 44] (Heptanoyl-[Dab]T[Dap][Dab][Dab][dL]T[Dab][Dab]T; lactam 4-C)	1 (≈ 0.897 µM)	1 (≈ 0.897 µM)	1 (≈ 0.897 µM)	0.5 (≈ 0.448 µM)	1 (≈ 0.897 µM)	16 (≈ 14.3 µM)	0.25 (≈ 0.224 µM)	<0.125	<0.125
CCCCCCCCCC(=O)N[C@@H](CCN)C(=O)N[C@H](C(=O)N[C@@H](CCN)C(=O)N[C@H]1CCNC(=O)[C@H]([C@@H](C)O)NC(=O)[C@H](CCN)NC(=O)[C@H](CCN)NC(=O)[C@H](C)NC(=O)[C@@H](CC(C)C)NC(=O)[C@H](CCN)NC1=O)[C@@H](C)O [Compound 40] (Decanoyl-[Dab]T[Dab][Dab][Dab][dL]A[Dab][Dab]T; lactam 4-C)	0.5 (≈ 0.438 µM)	0.5 (≈ 0.438 µM)	0.5 (≈ 0.438 µM)	0.5 (≈ 0.438 µM)	2 (≈ 1.75 µM)	4 (≈ 3.5 µM)	0.25 (≈ 0.219 µM)	0.25 (≈ 0.219 µM)	0.25 (≈ 0.219 µM)
CCCCCCCC(=O)N[C@@H](CCN)C(=O)N[C@H](C(=O)N[C@@H](CN)C(=O)N[C@H]1CCNC(=O)[C@H]([C@@H](C)O)NC(=O)[C@H](CCN)NC(=O)[C@H](CCCN)NC(=O)[C@H]([C@@H](C)O)NC(=O)[C@@H](CC(C)C)NC(=O)[C@H](CCN)NC1=O)[C@@H](C)O [Compound 54] (Octanoyl-[Dab]T[Dap][Dab][Dab][dL]T[Orn][Dab]T; lactam 4-C)	0.5 (≈ 0.437 µM)	0.5 (≈ 0.437 µM)	0.25 (≈ 0.219 µM)	4 (≈ 3.5 µM)	2 (≈ 1.75 µM)	16 (≈ 14 µM)	<0.125	<0.125	0.25 (≈ 0.219 µM)
